# Columns and labels:
# Assay type in all cases: functional
# Escherichia coli = assay: Antimicrobial activity against Escherichia coli ATCC 25922 after 24 hr by broth dilution method; conditions: ATCC 25922, 24 h
# Trichoderma viride = assay: Antimicrobial activity against Hypocrea rufa ATCC 52440 after 24 hr by broth dilution method; conditions: ATCC 52440, 24 h
# Aspergillus niger = assay: Antimicrobial activity against Aspergillus niger ATCC 9142 after 24 hr by broth dilution method; conditions: ATCC 9142, 24 h
# [1] = tested on: Staphylococcus epidermidis; assay: Antimicrobial activity against Staphylococcus epidermidis ATCC 12228 after 24 hr by broth dilution method; conditions: ATCC 12228, 24 h
# Alternaria alternata = assay: Antimicrobial activity against Alternaria alternata ATCC 66868 after 24 hr by broth dilution method; conditions: ATCC 66868, 24 h
# Staphylococcus hominis = assay: Antimicrobial activity against Staphylococcus hominis ATCC 27844 after 24 hr by broth dilution method; conditions: ATCC 27844, 24 h
# Proteus mirabilis = assay: Antimicrobial activity against Proteus mirabilis ATCC 49565 after 24 hr by broth dilution method; conditions: ATCC 49565, 24 h
# Aspergillus fumigatus = assay: Antimicrobial activity against Aspergillus fumigatus after 24 hr by broth dilution method
# Aspergillus awamori = assay: Antimicrobial activity against Aspergillus awamori ATCC 22342 after 24 hr by broth dilution method; conditions: ATCC 22342, 24 h
# Trichophyton longifusum = assay: Antimicrobial activity against Trichophyton longifusum ATCC 22397 after 24 hr by broth dilution method; conditions: ATCC 22397, 24 h
# Salmonella typhi = assay: Antimicrobial activity against Salmonella enterica subsp. enterica serovar Typhi ATCC 19430 after 24 hr by broth dilution method; conditions: ATCC 19430, 24 h
# Fusarium solani = assay: Antimicrobial activity against Fusarium solani ATCC 38136 after 24 hr by broth dilution method; conditions: ATCC 38136, 24 h
# Microsporum canis = assay: Antimicrobial activity against Arthroderma otae ATCC 11622 after 24 hr by broth dilution method; conditions: ATCC 11622, 24 h
# Bacillus pumilus = assay: Antimicrobial activity against Bacillus pumilus ATCC 14884 after 24 hr by broth dilution method; conditions: ATCC 14884, 24 h
# Bacillus cereus = assay: Antimicrobial activity against Bacillus cereus ATCC 11778 after 24 hr by broth dilution method; conditions: ATCC 11778, 24 h
# Rhizoctonia solani = assay: Antimicrobial activity against Rhizoctonia solani ATCC 76131 after 24 hr by broth dilution method; conditions: ATCC 76131, 24 h
# Klebsiella pneumoniae = assay: Antimicrobial activity against Klebsiella pneumoniae ATCC 13883 after 24 hr by broth dilution method; conditions: ATCC 13883, 24 h
# Micrococcus luteus = assay: Antimicrobial activity against Micrococcus luteus ATCC 4698 after 24 hr by broth dilution method; conditions: ATCC 4698, 24 h
# Bacillus spizizenii = assay: Antimicrobial activity against Bacillus subtilis subsp. spizizenii ATCC 6633 after 24 hr by broth dilution method; conditions: ATCC 6633, 24 h
# Aspergillus flavus = assay: Antimicrobial activity against Aspergillus flavus ATCC 15517 after 24 hr by broth dilution method; conditions: ATCC 15517, 24 h
# Proteus vulgaris = assay: Antimicrobial activity against Proteus vulgaris ATCC 13315 after 24 hr by broth dilution method; conditions: ATCC 13315, 24 h
# Candida albicans = assay: Antimicrobial activity against Candida albicans ATCC 10231 after 24 hr by broth dilution method; conditions: ATCC 10231, 24 h
# Pseudomonas aeruginosa = assay: Antimicrobial activity against Pseudomonas aeruginosa ATCC 10145 after 24 hr by broth dilution method; conditions: ATCC 10145, 24 h
# Staphylococcus aureus = assay: Antimicrobial activity against Staphylococcus aureus ATCC 25923 after 24 hr by broth dilution method; conditions: ATCC 25923, 24 h
Compound,MIC (Escherichia coli),MIC (Trichoderma viride),MIC (Aspergillus niger),MIC [1],MIC (Alternaria alternata),MIC (Staphylococcus hominis),MIC (Proteus mirabilis),MIC (Aspergillus fumigatus),MIC (Aspergillus awamori),MIC (Trichophyton longifusum),MIC (Salmonella typhi),MIC (Fusarium solani),MIC (Microsporum canis),MIC (Bacillus pumilus),MIC (Bacillus cereus),MIC (Rhizoctonia solani),MIC (Klebsiella pneumoniae),MIC (Micrococcus luteus),MIC (Bacillus spizizenii),MIC (Aspergillus flavus),other results
O=C1Nc2ccc(Cl)cc2/C1=N/N1C(=O)C(Cl)C1c1ccco1 (stereo not drawn),37.5 µg/mL,37.5 µg/mL,18.8 µg/mL,75 µg/mL,37.5 µg/mL,37.5 µg/mL,37.5 µg/mL,18.8 µg/mL,37.5 µg/mL,18.8 µg/mL,75 µg/mL,37.5 µg/mL,37.5 µg/mL,37.5 µg/mL,37.5 µg/mL,37.5 µg/mL,75 µg/mL,37.5 µg/mL,75 µg/mL,37.5 µg/mL,MIC (Proteus vulgaris): 37.5 µg/mL; MIC (Candida albicans): 18.8 µg/mL; MIC (Pseudomonas aeruginosa): 37.5 µg/mL; MIC (Staphylococcus aureus): 37.5 µg/mL
O=C1Nc2ccc(Cl)cc2/C1=N/N1C(=O)C(Cl)C1c1ccc(O)cc1 (stereo not drawn),9.37 µg/mL,4.68 µg/mL,4.68 µg/mL,9.37 µg/mL,4.68 µg/mL,18.8 µg/mL,9.37 µg/mL,4.68 µg/mL,4.68 µg/mL,4.68 µg/mL,9.37 µg/mL,9.37 µg/mL,4.68 µg/mL,9.37 µg/mL,9.37 µg/mL,4.68 µg/mL,18.8 µg/mL,18.8 µg/mL,9.37 µg/mL,4.68 µg/mL,MIC (Proteus vulgaris): 9.37 µg/mL; MIC (Candida albicans): 4.68 µg/mL; MIC (Pseudomonas aeruginosa): 9.37 µg/mL; MIC (Staphylococcus aureus): 18.8 µg/mL
CN(C)c1ccc(C2C(Cl)C(=O)N2/N=C2\C(=O)Nc3ccc(Cl)cc32)cc1 (stereo not drawn),9.37 µg/mL,4.68 µg/mL,9.37 µg/mL,9.37 µg/mL,4.68 µg/mL,18.8 µg/mL,18.8 µg/mL,4.68 µg/mL,9.37 µg/mL,4.68 µg/mL,9.37 µg/mL,9.37 µg/mL,4.68 µg/mL,9.37 µg/mL,18.8 µg/mL,9.37 µg/mL,9.37 µg/mL,18.8 µg/mL,18.8 µg/mL,4.68 µg/mL,MIC (Proteus vulgaris): 9.37 µg/mL; MIC (Candida albicans): 4.68 µg/mL; MIC (Pseudomonas aeruginosa): 9.37 µg/mL; MIC (Staphylococcus aureus): 18.8 µg/mL
COc1ccc(C2C(Cl)C(=O)N2/N=C2\C(=O)Nc3ccc(Cl)cc32)cc1 (stereo not drawn),9.37 µg/mL,4.68 µg/mL,4.68 µg/mL,9.37 µg/mL,9.37 µg/mL,18.8 µg/mL,18.8 µg/mL,4.68 µg/mL,4.68 µg/mL,4.68 µg/mL,9.37 µg/mL,4.68 µg/mL,9.37 µg/mL,9.37 µg/mL,9.37 µg/mL,9.37 µg/mL,9.37 µg/mL,9.37 µg/mL,18.8 µg/mL,9.37 µg/mL,MIC (Proteus vulgaris): 18.8 µg/mL; MIC (Candida albicans): 4.68 µg/mL; MIC (Pseudomonas aeruginosa): 9.37 µg/mL; MIC (Staphylococcus aureus): 18.8 µg/mL
O=C1Nc2ccc(Cl)cc2/C1=N/N1C(=O)C(Cl)C1c1ccc(F)cc1 (stereo not drawn),18.8 µg/mL,9.37 µg/mL,4.68 µg/mL,18.8 µg/mL,4.68 µg/mL,9.37 µg/mL,9.37 µg/mL,9.37 µg/mL,4.68 µg/mL,9.37 µg/mL,9.37 µg/mL,9.37 µg/mL,9.37 µg/mL,18.8 µg/mL,18.8 µg/mL,9.37 µg/mL,18.8 µg/mL,18.8 µg/mL,9.37 µg/mL,4.68 µg/mL,MIC (Proteus vulgaris): 18.8 µg/mL; MIC (Candida albicans): 4.68 µg/mL; MIC (Pseudomonas aeruginosa): 18.8 µg/mL; MIC (Staphylococcus aureus): 18.8 µg/mL
O=C1Nc2ccc(Cl)cc2/C1=N/N1C(=O)C(Cl)C1c1ccc([N+](=O)[O-])cc1 (stereo not drawn),18.8 µg/mL,9.37 µg/mL,4.68 µg/mL,18.8 µg/mL,4.68 µg/mL,18.8 µg/mL,9.37 µg/mL,9.37 µg/mL,9.37 µg/mL,9.37 µg/mL,9.37 µg/mL,9.37 µg/mL,4.68 µg/mL,9.37 µg/mL,9.37 µg/mL,9.37 µg/mL,9.37 µg/mL,9.37 µg/mL,9.37 µg/mL,4.68 µg/mL,MIC (Proteus vulgaris): 9.37 µg/mL; MIC (Candida albicans): 4.68 µg/mL; MIC (Pseudomonas aeruginosa): 9.37 µg/mL; MIC (Staphylococcus aureus): 18.8 µg/mL
O=C(O)c1cn(C2CC2)c2cc(N3CCNCC3)c(F)cc2c1=O [CIPROFLOXACIN],4.7 µg/mL,,,4.7 µg/mL,,4.7 µg/mL,4.7 µg/mL,,,,4.7 µg/mL,,,4.7 µg/mL,4.7 µg/mL,,4.7 µg/mL,4.7 µg/mL,4.7 µg/mL,,MIC (Proteus vulgaris): 4.7 µg/mL; MIC (Pseudomonas aeruginosa): 4.7 µg/mL; MIC (Staphylococcus aureus): 4.7 µg/mL
Clc1ccccc1C(c1ccccc1)(c1ccccc1)n1ccnc1 [CLOTRIMAZOLE],,1.17 µg/mL,2.34 µg/mL,,2.34 µg/mL,,,2.34 µg/mL,2.34 µg/mL,2.34 µg/mL,,1.17 µg/mL,1.17 µg/mL,,,1.17 µg/mL,,,,2.34 µg/mL,MIC (Candida albicans): 0.58 µg/mL

# From ChEMBL document CHEMBL3046063, “Synthesis and antimicrobial activity of 5-chloroindoline-2,3-dione derivatives” (2012)
